The values that follow come from ChEMBL document CHEMBL1201862, “PubChem BioAssay data set” (2004).

Some test systems named below: M14; MOLT-4; OVCAR-5; HCT-116; SK-MEL-28; NCI-H226; OVCAR-3; NCI-H522; A549; 786-0; SF-539; OVCAR-8; HT-29; Malme-3M; CCRF-CEM; SW-620; RPMI-8226.
What all share (assay): inhibition of tumour cell growth, NCI panel, 48 h

Molecules are shown by their SMILES.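 Dose response: 5 concentrations. Exposure: 48 h. Format: 96-well plates. Endpoint: linear interpolation; highest concentration if not reached. At the GI50, growth is halved.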 Activity calls are given as the source filed them. Rule as the data show it: active = GI50 up to about 1.1 µM and inactive = higher. A value given as a limit tells only on which side of the number the result lay.

For `C/C(=N\NC(=N)N)C(CN(CC(C)C)CC(C)C)C(=O)Nc1ccc(C)cc1C` (stereo unspecified), the GI50 in the assay on M14, with MOLT-4, with OVCAR-5, in the assay with HCT-116, in the assay with SK-MEL-28 and in the assay on NCI-H226 was > 100 µM (inactive) in each case. Also, the GI50 in the assay on OVCAR-3, in the assay on NCI-H522, with A549, with 786-0, with SF-539 and with OVCAR-8 was > 100 µM (inactive) throughout. Moreover, the GI50 with HT-29, in the assay with Malme-3M, in the assay on CCRF-CEM and in the assay on SW-620 was > 100 µM (inactive) in each case.
Take `O=C(N/C(=C\c1ccc([N+](=O)[O-])cc1)c1nc2c(O)nc(S)nc2[nH]1)c1ccccc1`: the GI50 is > 100 µM (inactive) in the assay on M14; 88.7 µM (inactive) in the assay on MOLT-4; > 100 µM (inactive) in the assay with OVCAR-5; > 100 µM (inactive) in the assay on SK-MEL-28; > 100 µM (inactive) in the assay with OVCAR-3; 57.1 µM (inactive) in the assay on NCI-H522. Besides, the GI50 in the assay with A549, in the assay with 786-0, in the assay on SF-539, with OVCAR-8, in the assay on HT-29 and in the assay on Malme-3M was > 100 µM (inactive) throughout. Moreover, the GI50 is 92.3 µM (inactive) in the assay on CCRF-CEM and > 100 µM (inactive) with SW-620.
On to `COC(=O)NC(=O)c1cn(C2OC(CO)C(O)C2O)c(=O)[nH]c1=O` (stereo unspecified), for which the GI50 in the assay with M14, in the assay with MOLT-4, in the assay on OVCAR-5, in the assay on HCT-116, in the assay with RPMI-8226 and in the assay with SK-MEL-28 was > 100 µM (inactive) in each case. Besides, the GI50 in the assay with NCI-H226, in the assay with OVCAR-3, in the assay with NCI-H522, in the assay with A549, in the assay with 786-0 and in the assay with SF-539 was > 100 µM (inactive) throughout. The GI50 in the assay on OVCAR-8, in the assay on HT-29, in the assay on Malme-3M and with SW-620 was > 100 µM (inactive) in each case.
Regarding `CCN(CC)C(=S)N/N=C(\C)c1ccccc1O`, the GI50 with M14 was 17.5 µM (inactive); in the assay with MOLT-4, 8.59 µM (inactive); in the assay on RPMI-8226, 18.5 µM (inactive); in the assay on SK-MEL-28, 23.4 µM (inactive); in the assay with NCI-H226, 20.7 µM (inactive); with OVCAR-3, 34.3 µM (inactive). Also, the GI50 with NCI-H522 was 8.57 µM (inactive); in the assay with A549, 11.4 µM (inactive); with 786-0, 26.2 µM (inactive); in the assay with SF-539, 18 µM (inactive); with OVCAR-8, 19.5 µM (inactive); in the assay with HT-29 it was 19.5 µM (inactive). Further, the GI50 in the assay on Malme-3M is 26.4 µM (inactive); with CCRF-CEM, 5 µM (inactive); with SW-620 it was 22.9 µM (inactive).
Regarding `O=C(O)C1=C(C(=O)Nc2ccccc2)C2C=CC1C2` (stereo unspecified), the GI50 in the assay on M14, in the assay with MOLT-4, with OVCAR-5, in the assay on HCT-116, in the assay on RPMI-8226 and in the assay on SK-MEL-28 was > 100 µM (inactive) in each case. In addition, the GI50 in the assay with OVCAR-3, in the assay on A549, in the assay on 786-0, with SF-539, in the assay on OVCAR-8 and in the assay with HT-29 was > 100 µM (inactive) each time. Further, the GI50 in the assay on Malme-3M, in the assay on CCRF-CEM and in the assay with SW-620 was > 100 µM (inactive) in each case.
For `Cn1cnc2[nH]c(=O)[nH]c(=S)c21`, the GI50 in the assay on M14, in the assay with MOLT-4, with OVCAR-5, with HCT-116, in the assay on RPMI-8226 and with NCI-H226 was > 100 µM (inactive) in each case. The GI50 in the assay with OVCAR-3, with NCI-H522, with A549, in the assay with 786-0, with SF-539 and in the assay with OVCAR-8 was > 100 µM (inactive) throughout. Moreover, the GI50 in the assay with HT-29, in the assay with Malme-3M, in the assay with CCRF-CEM and in the assay on SW-620 was > 100 µM (inactive) in each case.
Regarding `NNC(=O)C(=O)N/N=C(\CCC(=O)Nc1ccc(Cl)cc1)Cc1nc2ccccc2s1`, the GI50 in the assay on M14 was 19.7 µM (inactive); with MOLT-4, 18.5 µM (inactive); with OVCAR-5 it was 33.1 µM (inactive); in the assay with HCT-116, 28.1 µM (inactive); with RPMI-8226, 25.6 µM (inactive); with SK-MEL-28 it was 71.8 µM (inactive). Further, the GI50 is > 100 µM (inactive) in the assay on NCI-H226; 18.2 µM (inactive) with OVCAR-3; 15.5 µM (inactive) in the assay on NCI-H522; 45.4 µM (inactive) with A549; 17.3 µM (inactive) with 786-0; 32.7 µM (inactive) with SF-539. Moreover, the GI50 with OVCAR-8 is > 100 µM (inactive); in the assay with HT-29 it was 44.8 µM (inactive); in the assay with Malme-3M it was 44.7 µM (inactive); in the assay on CCRF-CEM it was 3.32 µM (inactive); with SW-620, 35.3 µM (inactive).
As for `NC(=O)c1ncn(C2OC(CO)C(O)C2O)c1O` (stereo unspecified), the GI50 with M14 is > 100 µM (inactive); in the assay on MOLT-4 it was 72.1 µM (inactive); in the assay with OVCAR-5, 58.1 µM (inactive); with HCT-116, 72.6 µM (inactive); with RPMI-8226, > 100 µM (inactive); with SK-MEL-28, > 100 µM (inactive). Moreover, the GI50 was 54.6 µM (inactive) in the assay on NCI-H226; 96.8 µM (inactive) in the assay with OVCAR-3; > 100 µM (inactive) in the assay with A549; > 100 µM (inactive) in the assay on 786-0; > 100 µM (inactive) in the assay on SF-539; > 100 µM (inactive) with OVCAR-8. For the same compound, the GI50 with HT-29 was 4.69 µM (inactive); in the assay with Malme-3M, > 100 µM (inactive); with CCRF-CEM, > 100 µM (inactive); in the assay on SW-620, 44.4 µM (inactive).
Turning to `O=C1C(c2ccccc2)=C(c2ccccc2)C(c2ccc(Cc3ccc(C4=C(c5ccccc5)C(=O)C(c5ccccc5)=C4c4ccccc4)cc3)cc2)=C1c1ccccc1`, the GI50 with MOLT-4 is > 100 µM (inactive); in the assay on OVCAR-5, > 100 µM (inactive); with HCT-116 it was > 100 µM (inactive); with RPMI-8226 it was > 100 µM (inactive); in the assay with NCI-H226, 50.6 µM (inactive); in the assay with OVCAR-3 it was > 100 µM (inactive). Further, the GI50 in the assay with NCI-H522, in the assay on A549, in the assay on 786-0, in the assay with SF-539, with OVCAR-8 and in the assay on HT-29 was > 100 µM (inactive) each time. In addition, the figures for the GI50 in the assay on Malme-3M, in the assay with CCRF-CEM and in the assay with SW-620 were 74.1 µM (inactive), > 100 µM (inactive) and > 100 µM (inactive), respectively.
For `COC(=O)C(=O)C(C#N)c1ccc(Cl)c(Cl)c1` (stereo unspecified), the GI50 in the assay with M14, in the assay with MOLT-4, in the assay on HCT-116, with RPMI-8226, in the assay on SK-MEL-28 and in the assay on NCI-H226 was > 100 µM (inactive) throughout. The GI50 in the assay with OVCAR-3, with NCI-H522, in the assay on A549, in the assay with 786-0, with SF-539 and in the assay on HT-29 was > 100 µM (inactive) throughout. The GI50 in the assay with Malme-3M, in the assay with CCRF-CEM and with SW-620 was > 100 µM (inactive) each time.
As for `CC(C)c1cccc(C(C)C)c1NC(=O)C(=O)Cc1nc2ccc([N+](=O)[O-])cc2nc1O`, the GI50 with M14 was 28.1 µM (inactive); with MOLT-4, 74.1 µM (inactive); with OVCAR-5, > 100 µM (inactive); in the assay on HCT-116, 39.2 µM (inactive); in the assay on SK-MEL-28 it was 86.1 µM (inactive); in the assay with NCI-H226 it was > 100 µM (inactive). In addition, the GI50 in the assay with OVCAR-3 is > 100 µM (inactive); in the assay on NCI-H522 it was 6.35 µM (inactive); in the assay with A549, 53.6 µM (inactive); in the assay on 786-0, > 100 µM (inactive); in the assay on SF-539, 78.3 µM (inactive); in the assay with HT-29, > 100 µM (inactive). The figures for the GI50 in the assay on Malme-3M, with CCRF-CEM and in the assay on SW-620 were > 100 µM (inactive), 18.6 µM (inactive) and 71.6 µM (inactive), respectively.
As to `CC(=O)NNc1nc(C)c(C(=O)/C=C/c2ccccc2Cl)s1`, the GI50 in the assay with MOLT-4, with OVCAR-5, with RPMI-8226, with SK-MEL-28, with NCI-H226 and in the assay on OVCAR-3 was > 100 µM (inactive) in each case. In addition, the GI50 is 43.5 µM (inactive) in the assay with NCI-H522; > 100 µM (inactive) in the assay on A549; > 100 µM (inactive) with 786-0; > 100 µM (inactive) in the assay with SF-539; > 100 µM (inactive) with OVCAR-8; > 100 µM (inactive) in the assay on HT-29. The GI50 in the assay on Malme-3M, in the assay with CCRF-CEM and in the assay with SW-620 was > 100 µM (inactive) throughout.
For the compound `Nc1ccc(C(=O)N/C(=C\C=C\c2ccco2)c2nc3c4c(ccc3[nH]2)C(=O)c2ccccc2C4=O)cc1`, the GI50 is 55 µM (inactive) with M14; 3.67 µM (inactive) with MOLT-4; > 100 µM (inactive) with OVCAR-5; 24.8 µM (inactive) with HCT-116; 3.21 µM (inactive) with RPMI-8226; 36.6 µM (inactive) with SK-MEL-28. For the same compound, the GI50 in the assay with OVCAR-3 is 32.9 µM (inactive); in the assay on NCI-H522, 15.8 µM (inactive); in the assay with A549, 21 µM (inactive); in the assay with 786-0, 30.3 µM (inactive); in the assay with SF-539, 17.2 µM (inactive); with OVCAR-8, 32.2 µM (inactive). Besides, the GI50 in the assay on HT-29 was 49.7 µM (inactive); with Malme-3M, 85.9 µM (inactive); in the assay on CCRF-CEM, 1.09 µM (active); with SW-620, 33 µM (inactive).
